Common to all, as to assay: inhibition of tumour cell growth, NCI panel, 48 h
Experiment [1] relates to Malme-3M.
Experiment [2] relates to K562.
Experiment [3] relates to LOX IMVI.
Experiment [4] deals with ACHN.
For experiment [5], the system named is SF-268.
Experiment [6] deals with 786-0.
Experiment [7] concerns SK-MEL-28.
The subject of experiment [8] is HCT-15.
Experiment [9] relates to MOLT-4.
In experiment [10] the test system is M14.
The test system of experiment [11] is HOP-62.
Experiment [12] relates to PC-3.
For experiment [13], the system named is MDA-MB-435.
For experiment [14], the system named is HOP-92.
The test system of experiment [15] is MDA-MB-231.
In experiment [16] the test system is UO-31.
Experiment [17] has as its system HT-29.
Experiment [18] relates to T47D.

The structures appear in SMILES notation.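 Exposure lasted 48 hours, with cells grown in 96-well plates and compounds tested at five concentrations. GI50 marks 50% less growth.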 Calls of active or inactive are those of the source. Rule as the data show it: active = GI50 up to about 1.1 µM and inactive = higher.

For the molecule `CCc1c2c([nH]c(=S)c1C#N)CCC2`, the GI50 in experiment [1], in [2], in experiment [3], in [4], in [5] and in experiment [6] was > 100 µM (inactive) throughout. Besides, the GI50 in experiment [7] is > 100 µM (inactive); in [8], over 100 µM; in experiment [9] it was > 100 µM (inactive); in experiment [10], > 100 µM (inactive); in [11], > 100 µM (inactive); in experiment [12], > 100 µM (inactive). For the same molecule, the GI50 in experiment [13] was > 100 µM (inactive); in experiment [14], 2.35 µM (inactive); in experiment [15], > 100 µM (inactive); in experiment [16], > 100 µM (inactive); in [17], > 100 µM (inactive).

Regarding `Cc1ccc(S(=NS(=O)(=O)c2ccc(C)cc2)c2ccc(C)cc2)cc1`, the GI50 in [1] was > 100 µM (inactive); in experiment [2], 36.1 µM (inactive); in experiment [4] it was > 100 µM (inactive); in [5] it was 76.2 µM (inactive); in experiment [6] it was > 100 µM (inactive); in experiment [7], > 100 µM (inactive). In addition, the GI50 in [18] is 56 µM (inactive); in experiment [8], 57 µM; in experiment [9] it was > 10 µM (inactive); in experiment [10], > 100 µM (inactive); in [11] it was > 100 µM (inactive); in experiment [12], 64 µM (inactive). Moreover, the GI50 in experiment [13] was 60.3 µM (inactive); in experiment [14], > 100 µM (inactive); in [16], 63.7 µM (inactive); in [17], > 100 µM (inactive).

Regarding `COc1ccc(/C=c2/sc3n(c2=O)C(c2ccccc2)C2(O)CCCCC2N=3)cc1` (configuration not stated), the GI50 in [1], in experiment [2], in [3], in experiment [4], in experiment [5] and in experiment [6] was > 12.5 µM (inactive) each time. The GI50 in experiment [7], in experiment [18], in experiment [9], in experiment [10], in experiment [11] and in [12] was > 12.5 µM (inactive) throughout. For the same molecule, the GI50 in experiment [13], in experiment [16] and in experiment [17] was > 12.5 µM (inactive) in each case.

For the molecule `COc1cc(C2S/C(=C/c3ccccc3)C(=O)N2c2cccc(Cl)c2)cc(OC)c1OC` (configuration not stated), the GI50 is 21.1 µM (inactive) in experiment [2]; 21.1 µM (inactive) in [3]; 30.6 µM (inactive) in experiment [4]; 77.1 µM (inactive) in [5]; 33.3 µM (inactive) in experiment [6]; 78.3 µM (inactive) in experiment [7]. Further, the GI50 is 34.8 µM in experiment [8]; 22 µM (inactive) in experiment [9]; 62.8 µM (inactive) in experiment [10]; 51.8 µM (inactive) in experiment [12]; 22.2 µM (inactive) in [13]; 96.4 µM (inactive) in experiment [14]. Also, the values for the GI50 in [15], in [16] and in experiment [17] were > 100 µM (inactive), 23.7 µM (inactive) and 44.9 µM (inactive), respectively.

Turning to `O=C1CN(c2ccccc2)C(=O)CN1NCNN1CC(=O)N(c2ccccc2)CC1=O`, the GI50 is > 100 µM (inactive) in experiment [1]; > 100 µM (inactive) in experiment [4]; > 100 µM (inactive) in experiment [5]; > 100 µM (inactive) in experiment [6]; > 100 µM (inactive) in [7]; over 100 µM in experiment [8]. Moreover, the GI50 in experiment [9], in experiment [10], in experiment [11], in [12], in [13] and in experiment [14] was > 100 µM (inactive) throughout. Moreover, the GI50 in [16] and in experiment [17] was > 100 µM (inactive) throughout.

For the origin of these results see ChEMBL document CHEMBL1201862, “PubChem BioAssay data set” (2004).
